From DBAASP
Converted amounts (≈) assume the structure as drawn. “And” between values parts separate entries of the source, which are not always exact repeats. Equal entries are not always repeated.

What was measured:
Experiment in all cases: ≥ marks a high value that may be exact or a test limit, other limits are often not marked, values filed in µg/mL are converted to µM
[1] = system: Staphylococcus aureus NCTC 13277
[2] = system: Acinetobacter baumannii ATCC 17978
[3] = system: Staphylococcus aureus NCTC 13616
[4] = system: Enterococcus faecalis NCTC 12201
[5] = system: Klebsiella pneumoniae M6
[6] = system: Enterococcus faecalis NCTC 775
[7] = system: Staphylococcus aureus NCTC 6571
[8] = system: Pseudomonas aeruginosa NCTC 13437
[9] = system: Pseudomonas aeruginosa PAO1
[10] = system: Acinetobacter baumannii AYE
[11] = system: Staphylococcus aureus ATCC 6538P
[12] = system: Escherichia coli K-12 594
[13] = system: Staphylococcus aureus SR1550
[14] = system: Escherichia coli DSM 30083
[15] = system: Bacillus subtilis DSM 402
[16] = system: Staphylococcus aureus ATCC 43300
[17] = system: Staphylococcus aureus DSM 20231
[18] = system: Streptococcus gordonii ATCC 10558
[19] = system: Streptococcus mutans UA159
[20] = system: Streptococcus sanguinis ATCC 49295
[21] = system: Streptococcus mutans GS-5
[22] = system: Bacillus subtilis ATCC 6633
[23] = system: Staphylococcus aureus ATCC 6538
[24] = system: Escherichia coli K-12
[25] = system: Pseudomonas aeruginosa ATCC 27853
[26] = system: Micrococcus luteus NCIMB 13267
[27] = system: Klebsiella pneumoniae CGMCC 1.1736
[28] = system: Pseudomonas aeruginosa CGMCC 1.2421
[29] = system: Staphylococcus epidermidis CGMCC 1.4260
[30] = system: Staphylococcus aureus CGMCC 1.8721
[31] = system: Escherichia coli CGMCC 1.8732
[32] = system: Bacillus subtilis CGMCC 1.3376
[33] = system: Fusarium solani MTCC 10158
[34] = system: Xanthomonas oryzae ITCC BB00026
[35] = system: Bacillus cereus
[36] = system: Escherichia coli DH5alpha
[37] = system: Candida albicans MTCC 227
[38] = system: Xanthomonas axonopodis ITCC BD00029
[39] = system: Salmonella enterica subsp. enterica serovar Typhi
[40] = system: Vibrio cholerae
[41] = system: Rhizopus stolonifer CECT 2344
[42] = system: Pseudomonas syringae EPS 94
[43] = system: Aspergillus niger CECT 2694
[44] = system: Xanthomonas vesicatoria 2133-2
[45] = system: Penicillium expansum EPS 26
[46] = system: Fusarium oxysporum f. sp. lycopersici ATCC 201829
[47] = system: Erwinia amylovora PMV 6076

In the case of CC[C@H](C)[C@H](NC(=O)[C@@H]1CCCN1C(=O)[C@H](CC(C)C)NC(=O)[C@@H](N)Cc1ccccc1)C(=O)N[C@H](C(=O)NCC(=O)N[C@@H](CC(C)C)C(=O)N[C@@H](CC(C)C)C(=O)N[C@@H](CCCCN)C(=O)N[C@@H](CO)C(=O)N[C@@H](CC(C)C)C(=O)N[C@@H](CC(C)C)C(=O)N[C@@H](CCCCN)C(N)=O)C(C)C [FLPIVGLLKSLLK], the MIC [1] is reported as 11.1 µM (≈ 16 µg/mL), the MIC [2] is reported as 5.55 µM and 11.1 µM and the MIC [3] is reported as 11.1 µM (≈ 16 µg/mL). For the same compound, the MIC [4] was at least 88.8 µM, the MIC [5] was 22.2 µM and ≥ 44.4 µM and the MIC [6] was 22.2 µM and ≥ 44.4 µM. The MIC [7] was 2.78 µM and 5.55 µM, the MIC [8] was at least 88.8 µM and the MIC [9] was 88.8 µM (≈ 128 µg/mL). For the same compound, the MIC [10] was 5.55 µM (≈ 7.99 µg/mL).

CC(C)C[C@H](NC(=O)[C@H](CC(C)C)NC(=O)[C@H](CC(C)C)NC(=O)[C@H](CC(C)C)NC(=O)[C@H](CC(C)C)NC(=O)[C@H](CCCCN)NC(=O)[C@H](CC(C)C)NC(=O)[C@@H](N)CCCCN)C(N)=O [KLKLLLLL] was tested, and the MIC [11] was 8.39 µM (≈ 7.99 µg/mL), the MIC [12] was 21 µM (≈ 20 µg/mL) and the MIC [13] was at least 36.7 µM.

In the case of NCCCC[C@H](N)C(=O)N[C@@H](CCCN=C(N)N)C(=O)N[C@@H](Cc1c[nH]c2ccccc12)C(=O)N[C@@H](CCCN=C(N)N)C(=O)N[C@@H](Cc1c[nH]c2ccccc12)C(=O)N[C@@H](CCCN=C(N)N)C(=O)N[C@@H](Cc1c[nH]c2ccccc12)C(=O)O [KRWRWRW], the MIC [14] is reported as 18 µM (≈ 21.1 µg/mL), the MIC [15] is reported as 2 µM (≈ 2.35 µg/mL) and the MIC [16] is reported as 12.7 µM (≈ 14.9 µg/mL). The MIC [17] was at least 37 µM.

For CC(C)C[C@H](NC(=O)[C@H](CCCN=C(N)N)NC(=O)[C@H](Cc1ccccc1)NC(=O)[C@H](Cc1ccccc1)NC(=O)[C@@H](NC(=O)[C@H](CO)NC(=O)[C@@H](N)CC(C)C)[C@@H](C)O)C(=O)N[C@@H](Cc1ccccc1)C(=O)N[C@@H](CC(N)=O)C(=O)NCC(=O)N[C@@H](CCCN=C(N)N)C(=O)N[C@@H](CCCN=C(N)N)C(=O)N[C@@H](CCCN=C(N)N)C(=O)N[C@@H](CCCN=C(N)N)C(=O)N[C@@H](CO)C(=O)N[C@H](C(=O)N[C@@H](CCC(N)=O)C(=O)N[C@@H](Cc1c[nH]c2ccccc12)C(=O)N[C@@H](CS)C(=O)N[C@@H](C)C(=O)O)C(C)C [LSTFFRLFNGRRRRSVQWCA], the MIC [18] was 19.9 µM (≈ 49.8 µg/mL), the MIC [19] was 4.27 µM (≈ 10.7 µg/mL) and the MIC [20] was at least 39.8 µM. It also gave an MIC [21] of 5.33 µM (≈ 13.3 µg/mL).

CC[C@H](C)[C@H](NC(=O)[C@H](CCC(=O)O)NC(=O)[C@H](CCC(N)=O)NC(=O)[C@H](CCC(=O)O)NC(=O)[C@H](CC(C)C)NC(=O)[C@H](C)NC(=O)[C@H](C)NC(=O)[C@@H](NC(=O)[C@H](CCC(=O)O)NC(=O)[C@H](CCC(N)=O)NC(=O)[C@H](CCC(=O)O)NC(=O)[C@H](CC(C)C)NC(=O)[C@H](C)NC(=O)[C@H](C)NC(=O)[C@@H](NC(=O)[C@@H](N)CCC(N)=O)[C@@H](C)CC)[C@@H](C)CC)C(=O)N[C@@H](C)C(=O)N[C@@H](C)C(=O)N[C@@H](CC(C)C)C(=O)N[C@@H](CCC(N)=O)C(=O)O [QIAALEQEIAALEQEIAALQ] showed an MIC [22] of at least 250 µM, an MIC [23] of 250 µM (≈ 538 µg/mL) and an MIC [24] of at least 250 µM. It also gave an MIC [25] of 250 µM (≈ 538 µg/mL) and an MIC [26] of at least 250 µM.

Compound CC[C@H](C)[C@H](NC(=O)[C@H](CO)NC(=O)CNC(=O)[C@@H](NC(=O)[C@@H](N)CCCN=C(N)N)[C@@H](C)CC)C(=O)N[C@@H](CC(C)C)C(=O)NCC(=O)N[C@@H](CCCN=C(N)N)C(=O)N[C@@H](CC(C)C)C(=O)N[C@@H](C)C(=O)N[C@@H](CCCCN)C(=O)NCC(=O)N[C@@H](CC(C)C)C(=O)N1CCC[C@H]1C(=O)N[C@H](C(=O)N[C@@H](CC(C)C)C(=O)N[C@H](C(=O)N[C@@H](CO)C(=O)N[C@@H](Cc1c[nH]c2ccccc12)C(=O)N[C@H](C(=O)N[C@@H](CCCCN)C(=O)N[C@@H](CC(N)=O)C(=O)N[C@@H](CCCN=C(N)N)C(N)=O)[C@@H](C)CC)[C@@H](C)CC)[C@@H](C)O [RIGSILGRLAKGLPTLISWIKNR] has an MIC [27] of 6.25 µM (≈ 16 µg/mL), an MIC [28] of 6.25 µM (≈ 16 µg/mL) and an MIC [29] of 3.13 µM (≈ 8.02 µg/mL). The MIC [30] was 12.5 µM (≈ 32 µg/mL), the MIC [31] was 6.25 µM (≈ 16 µg/mL) and the MIC [32] was 6.25 µM (≈ 16 µg/mL).

NCCCC[C@H](NC(=O)[C@H](CCCCN)NC(=O)[C@H](CO)NC(=O)[C@H](CO)NC(=O)[C@H](CCCCN)NC(=O)[C@H](Cc1c[nH]c2ccccc12)NC(=O)[C@H](CCCN=C(N)N)NC(=O)[C@H](Cc1c[nH]c2ccccc12)NC(=O)[C@H](CCCN=C(N)N)NC(=O)[C@@H](N)CO)C(=O)O [SRWRWKSSKK] showed an MIC [33] of 20 µM (≈ 27 µg/mL), an MIC [34] of 10 µM (≈ 13.5 µg/mL) and an MIC [35] of 30 µM (≈ 40.5 µg/mL). It also gave an MIC [36] of 30 µM (≈ 40.5 µg/mL), an MIC [37] of at least 40 µM and an MIC [38] of 10 µM (≈ 13.5 µg/mL). For the same compound, the MIC [39] was 20 µM (≈ 27 µg/mL), the MIC [40] was 30 µM (≈ 40.5 µg/mL) and the MIC [16] was 20 µM (≈ 27 µg/mL).

CC[C@H](C)[C@H](NC(=O)[C@H](CCCCN)NC(=O)[C@H](CCCCN)NC(=O)[C@H](Cc1ccccc1)NC(=O)[C@H](CC(C)C)NC(=O)[C@H](CCCCN)NC(=O)[C@@H](N)Cc1c[nH]c2ccccc12)C(=O)N[C@@H](CC(C)C)C(=O)N[C@@H](CCCCN)C(=O)N[C@@H](Cc1c[nH]c2ccccc12)C(=O)N[C@@H](CC(C)C)C(N)=O [WKLFKKILKWL] was tested, and the MIC [41] was at least 35.4 µM, the MIC [42] was 5.92 µM (≈ 8.89 µg/mL) and the MIC [43] was 22.4 µM (≈ 33.6 µg/mL). For the same compound, the MIC [44] was 2 µM (≈ 3 µg/mL), the MIC [45] was 22.4 µM (≈ 33.6 µg/mL) and the MIC [46] was 1.73 µM (≈ 2.6 µg/mL). For the same compound, the MIC [47] was 5.92 µM (≈ 8.89 µg/mL).
